Literature values as cited in patent publication US8440231B2, “Swellable particles for drug delivery” (STC.UNM, priority 2006, dated 2013).

## CC(=O)N[C@@H](CS)C(=O)O [NACS, N-acetylcysteine]
  soluble in water: 100 mg/mL
